Measurements as given in US20220378707A1, “1-(((2S,3S,4S)-3-ETHYL-4-FLUORO-5-OXOPYRROLIDIN-2-YL)METHOXY)-7-METHOXYISOQUINOLINE-6-CARBOXAMIDE COMBINATIONS AND ORAL DOSAGE FORMS” (Pfizer Inc., priority 2019, published 2022).
Entries after “also recorded” stand apart in the source; their conditions may differ.

Assays:
[1] = 13 week toxicology study in rat: exposure interaction of tofacitinib and PF-06650833; assay type: in vivo
[2] = tested on: HUVEC+(IL-4 and histamine); experiment: BioMAP 4H system; assay type: cell-based, human; conditions: Th2 vascular inflammation, tofacitinib 37-1000 nM
Excerpt: (§1) The BioMAP systems consist of human primary cell-based systems designed to model different aspects of the human body in an in vitro format. The 12 systems tested characterized the test compounds across a broad set of systems modeling various human disease states. BioMAP systems were constructed with one or more primary cell types from healthy human donors, with stimuli (such as cytokines or growth factors) added to capture relevant signaling networks that naturally occur in human tissue or pathological conditions. Vascular biology was modeled in both a Th1 (3C system) and a Th2 (4H system) inflammatory environment, as well as in a Th1 inflammatory state specific to arterial smooth muscle cells (CASM3C system). […]
(§2) Systems were derived from either single cell types or co-culture systems. […] Test agents were prepared in DMSO (final concentration <0.1%) and were added 1 hour before stimulation, and remained in culture for 24 hours or as otherwise indicated (48-hrs, MyoF system; 72-hrs, BT system (soluble readouts); 168-hrs, BT system (secreted IgG)). […] Soluble factors from supernatants were quantified using either HTRF® detection, bead-based multiplex immunoassay or capture ELISA. Overt adverse effects of test agents on cell proliferation and viability (cytotoxicity) were detected by sulforhodamine B (SRB) staining, for adherent cells, and alamarBlue® reduction for cells in suspension.

[3] = tested on: bronchial epithelial cells and HDFn+(TNFα and IL-4); experiment: BioMAP BF4T system; assay type: cell-based, human; conditions: Th2 airway inflammation; tofacitinib 37-1000 nM
Excerpt: as §1, §2

Compound	Effects of 10 mg/kg tofacitinib on PF-06650833 exposure ([1]; female rats, 50 mg/kg PF-06650833)	Effects of 10 mg/kg tofacitinib on PF-06650833 exposure ([1]; male rats, 100 mg/kg PF-06650833)	Inhibition of biomarker readouts in the 4H system [2]	Inhibition of biomarker readouts in the 4H system ([2]; listed as Tofacitinib)	Increased biomarker readouts in the BF4T system [3]	Inhibition of biomarker readouts in the BF4T system [3]
CC[C@@H]1[C@H](F)C(=O)N[C@@H]1COc1nccc2cc(C(N)=O)c(OC)cc12 [PF-06650833, 1-(((2S,3S,4S)-3-Ethyl-4-fluoro-5-oxopyrrolidin-2-yl)methoxy)-7-methoxyisoquinoline-6-carboxamide]	no significant effects	no significant effects	–	–	–	–
C[C@@H]1CCN(C(=O)CC#N)C[C@@H]1N(C)c1ncnc2[nH]ccc12 [tofacitinib, 3-((3R,4R)-4-Methyl-3-(methyl(7H-pyrrolo[2,3-d]pyrimidin-4-yl)amino)piperidin-1-yl)-3-oxopropanenitrile]	–	–	MCP-1 and Eto3 and VCAM-1 and P-selectin	active over all tested concentrations; also recorded: MCP-1, Eot3, VCAM-1, P-selectin	MMP9	active over all tested concentrations; also recorded: Eot3, and VCAM-1
